Measured values as given in ChEMBL document CHEMBL1133156, “Macrocarpins A-D, new cytotoxic nor-triterpenes from Maytenus macrocarpa” (Bioorg Med Chem Lett, 2000).
Converted amounts (≈) assume the structure as drawn. “And” between values parts separate entries of the source, which are not always exact repeats. Equal values may be shown once.

Tests used:
[1] = tested on: SK-MEL-28; assay: Compound was tested for cytotoxic activity against SK-MEL-28 human melanoma (ATCC:HTB-72); assay type: functional, cell-based
[2] = tested on: P388; assay: Compound was tested for cytotoxic activity against P-388D1 mouse lymphoma (ATCC: CCL-46); assay type: functional, cell-based
[3] = tested on: HT-29; assay: (§1) Compound was tested for cytotoxic activity against […] human colon carcinoma (ATCC:HTB-38); assay type: functional, cell-based
[4] = tested on: P388; assay: Compound was tested for cytotoxic activity against P-388D1 mouse lymphoma (ATCC:CCL-46); assay type: functional, cell-based
[5] = tested on: A549; assay: Compound was tested for cytotoxic activity against A-549 human lung carcinoma (ATCC:CCL-185); assay type: functional, cell-based
[6] = species on record: Homo sapiens; assay: as §1; assay type: functional

Compound | IC50 [1] | IC50 [2] | IC50 [3] | IC50 [4] | IC50 [5] | IC50 [6]
C[C@@H]1CC2[C@]3(C)CCC4(C)C(=CC(=O)c5c4cc(O)c(O)c5C(=O)O)[C@@]3(C)CC[C@@]2(C)[C@H](O)C1=O (single isomer, unassigned) | 2.5 µg/mL and 5.2 µM | 5.2 µM | 2.5 µg/mL and 5.2 µM | 2.5 µg/mL (≈ 5.18 µM) | 2.5 µg/mL and 5.2 µM | 
COc1c(O)cc2c(c1C(=O)O)C(=O)C=C1C2(C)CC[C@@]2(C)C3C[C@@H](C)C(=O)[C@@H](O)[C@]3(C)CC[C@]12C (single isomer, unassigned) | 10 µg/mL and 20.7 µM | 20.7 µM | 10 µg/mL and 20.7 µM | 10 µg/mL (≈ 20.1 µM) | 10 µg/mL and 20.7 µM | 
COC(=O)[C@]1(C)CC[C@]2(C)CC[C@]3(C)C4CC(=O)c5c(cc(O)c(O)c5C=O)[C@]4(C)CC[C@@]3(C)C2C1 (stereo partly specified) | 0.5 µg/mL and 1 µM | 1 µM | 1 µg/mL (≈ 2.01 µM) | 0.5 µg/mL (≈ 1.01 µM) | 0.5 µg/mL and 1 µM | 2 µM
COC(=O)[C@]1(C)CC[C@]2(C)CC[C@]3(C)C4CC(=O)c5c(cc(OC(C)=O)c(OC(C)=O)c5C=O)[C@]4(C)CC[C@@]3(C)C2C1 (stereo partly specified) | 0.25 µg/mL and 400 nM | 0.4 µM | 0.25 µg/mL and 400 nM | 0.25 µg/mL (≈ 0.431 µM) | 0.25 µg/mL and 400 nM | 
CC1=C(O)C(=O)C=C2C1=CC(O)[C@H]1[C@@]2(C)CC[C@@]2(C)C3C[C@@H](C)C(=O)[C@@H](O)[C@]3(C)CC[C@]12C (single isomer, unassigned) | 1 µg/mL and 2 µM | 1 µM | 1 µg/mL and 2 µM | 0.5 µg/mL (≈ 1.1 µM) | 1 µg/mL and 2 µM | 
